Where “and” joins values, the source holds several entries; their conditions need not be identical. Equal values may be shown once.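 How tested: cells in 96-well plates exposed to compound for 48 hours at five concentrations. The concentration for 50% growth inhibition is given as GI50. TGI: total growth inhibition.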
Tested on: MDA-MB-468 breast
Assay: NCI-60 cell line screen, 48 h

SMILES	GI50	TGI
Nc1ccc2cc3ccc(N)cc3nc2c1	531 nM	2220 nM
COc1ccc(/C=N/NC(=O)c2[nH]c3ccc(Br)cc3c2-c2ccccc2)o1	58.8 nM	3360 nM
CC(C)(C[C@H]1CN(S(=O)(=O)c2cccc(C(F)(F)F)c2)c2cc(-c3cc(F)cc(OC(F)F)c3)ccc2O1)C(=O)O	3410 nM	25100 nM
O=c1cc(NC2CCN(CCCc3ccccc3)CC2)c2cc(Cl)ccc2o1	5820 nM	21800 nM
CC(C)C[C@H](NC(=O)/C=C/Cn1ccc2ccccc2c1=O)B(O)O	681 nM	4710 nM
C[C@H](O)C(=O)N1CCC(CCn2c(Sc3cc4c(cc3Br)OCO4)nc3c(N)ncnc32)CC1	482 nM	2920 nM
Cc1ncc(CCCN(C)C)cc1Nc1ncc2c(n1)-c1ccc(C(F)(F)F)cc1NC(=S)C2	< 21.2 nM	1580 nM
CCc1nc(C(N)=O)c(Nc2ccc(N3CCC(N4CCN(C)CC4)CC3)c(OC)c2)nc1NC1CCOCC1	12200 nM and 14000 nM	27700 nM and > 2370 nM and 31800 nM
CN(C)C(=O)[C@H](O)[C@H](Cc1ccccc1)NC(=O)c1cc2cc(Cl)ccc2[nH]1	20100 nM	77600 nM
CN(C)CCN1C(=O)c2ccc3c4c(ccc(c24)C1=O)C(=O)N(CCN=C=S)C3=O	26.3 nM	101 nM
Nc1nc(F)nc2c1ncn2C1OC(CO)C(O)C1O (stereo unspecified)	> 85600 nM	> 100000 nM
O=C(/C=C\c1ccc(NCc2ccc(C(=O)O)cc2)cc1)CCl	7360 nM	23800 nM
O=S(=O)(Nc1cc(Sc2cccc3cccnc23)c(O)c2ccccc12)c1ccccc1	1290 nM	3200 nM
CCn1c(SCc2ccc(C)cc2)nnc1-c1nn(-c2ccc(Cl)cc2Cl)c(-c2ccc(Cl)cc2)c1C	623 nM	10600 nM
COc1cc(/C=C/c2cc(/C=C/c3ccc(O)c(OC)c3)n(C(=O)Nc3ccc(C)cc3C)n2)ccc1O	242 nM	750 nM
COc1cc2[nH]c(C(=O)c3cc(OC)c(OC)c(OC)c3)c(N)c2cc1C#CC1CC1	2080 nM	8280 nM
CCCCCCCCCCCCCCCCCCOc1ccccc1CC(=O)OCC[N+]1(C)CCCC1	1700 nM	4510 nM

SMILES	GI50	TGI
COc1ccc(CCN2COc3c([C@@H](C)CCC=C(C)C)ccc(C)c3C2)cc1OC	1230 nM	2950 nM
CC/C=C\C[C@H]1C/C=C2/C(=O)C=C[C@@H]2C/C=C\CCCC(=O)O1	854 nM	2730 nM
Nc1ccc(-c2nc3ccc(Cc4ccc5nc(-c6ccc(N)cc6)[nH]c5c4)cc3[nH]2)cc1	1470 nM	2900 nM
COc1cc(C(=O)c2cc(C)c3[nH]c4ccc(C)cc4c3c2C)cc(OC)c1OC	< 10 nM	3680 nM
COC(=O)[C@H]1[C@@H](O)[C@@]2(O)c3c(OC)cc(OC)cc3O[C@@]2(c2ccc(OC)cc2)[C@@H]1c1ccccc1	7.83 nM	116 nM
COc1ccc(-c2nn(-c3ccc(NC(=O)Nc4cc(C(F)(F)F)cc(C(F)(F)F)c4)cc3)cc2-c2ccncc2)cc1Cl	1800 nM	6000 nM
COc1cccc2c(=O)c3c(sc12)c(N1CCNCC1)nc1ccccc13	1660 nM	3300 nM
COc1ccc(/C=C/C(=O)C(CC2CCC2)C(=O)/C=C/c2ccc(OC)c(OC)c2)cc1OC	1590 nM	3690 nM
COc1ccc(C(=O)COc2ccc(/C=C3\COc4ccc(OC)cc4C3=O)cc2)cc1	18000 nM	88200 nM
Cn1c(=O)c(Cc2ccccc2F)cc2cnc(NC3CCOCC3)nc21	> 25000 nM	> 25000 nM
CCOC(=O)c1sc(NCC(=O)Nc2cccc([N+](=O)[O-])c2)c(C(=O)OCC)c1C	670 nM	2230 nM
Cc1ccc(-c2nc3ccc(Cl)cc3c(=O)n2N2C(=O)CSC2c2ccccc2Cl)cc1 (stereo unspecified)	57600 nM	> 100000 nM
CC1(C)[C@@H](OC(N)=O)[C@H]2O[C@H]2[C@]2(C=O)[C@H]3CC[C@]4(C)[C@@H](c5ccc(=O)oc5)[C@@H](Cl)C[C@]4(O)C3=CC[C@@H]12	6.2 nM	17.8 nM
C#CCOc1cccc(-c2nc(N)nc(Nc3ccccc3SSc3ccccc3Nc3nc(N)nc(-c4cccc(OCC#C)c4)n3)n2)c1	> 33300 nM	> 33300 nM
Cc1ccc2[nH]c(O)c(N=Nc3ccc(S(N)(=O)=O)cc3)c2c1	6670 nM	> 25000 nM
CCOc1cc(C(C)(C)C)ccc1C1=N[C@@](C)(c2ccc(Cl)cc2)[C@@](C)(c2ccc(Cl)cc2)N1C(=O)N1CCN(CCCS(C)(=O)=O)CC1	2530 nM	7920 nM

Reference: PubChem BioAssay (NCI)
